#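 48-hour exposure; five concentrations; linearly interpolated endpoints. TGI: total growth inhibition.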
# How the values were obtained:
# Assay in all cases: NCI-60 cell line screen, 48 h
# SK-MEL-2 melanoma = system: SK-MEL-2 melanoma
# HOP-92 NSCLC = system: HOP-92 NSCLC
# NCI-H522 lung = system: NCI-H522 lung
# SF-539 CNS = system: SF-539 CNS
# SNB-19 CNS = system: SNB-19 CNS
# OVCAR-4 ovarian = system: OVCAR-4 ovarian
# NCI-H460 lung = system: NCI-H460 lung
# HL-60(TB) leukemia = system: HL-60(TB) leukemia
# SK-MEL-28 melanoma = system: SK-MEL-28 melanoma
# MOLT-4 leukemia = system: MOLT-4 leukemia
# HCC-2998 colon = system: HCC-2998 colon
# UO-31 renal = system: UO-31 renal
# UACC-62 melanoma = system: UACC-62 melanoma
# SF-268 CNS = system: SF-268 CNS
# RXF 393 renal = system: RXF 393 renal
Structure (SMILES),TGI (SK-MEL-2 melanoma) [µM],TGI (HOP-92 NSCLC) [µM],TGI (NCI-H522 lung) [µM],TGI (SF-539 CNS) [µM],TGI (SNB-19 CNS) [µM],TGI (OVCAR-4 ovarian) [µM],TGI (NCI-H460 lung) [µM],TGI (HL-60(TB) leukemia) [µM],TGI (SK-MEL-28 melanoma) [µM],TGI (MOLT-4 leukemia) [µM],TGI (HCC-2998 colon) [µM],TGI (UO-31 renal) [µM],TGI (UACC-62 melanoma) [µM],TGI (SF-268 CNS) [µM],TGI (RXF 393 renal) [µM]
COc1ccccc1-n1c(N)c2c(C)c(-c3ccccc3)[nH]c2nc1=S,> 100,> 100,> 100,> 100,> 100,> 100,> 100,> 100,> 100,> 100,> 100,> 100,> 100,–,–
CC/C(=N/O)c1ccc2[nH]c3c(C)cc([N+](=O)[O-])c(C)c3c2c1,> 100,–,> 100,> 100,> 100,> 100,> 100,> 100,> 100,> 100,> 100,> 100,–,> 100,–
CCCCNC(=NCc1ccccc1)NC#N,> 100,> 100,> 100,> 100,> 100,> 100,> 100,> 100,> 100,> 100,> 100,> 100,> 100,> 100,–
Cc1ccc(NC(=O)CSc2nnc(Cc3ccccc3)o2)cc1,> 100,–,> 100,> 100,> 100,> 100,> 100,–,> 100,> 100,> 100,> 100,> 100,> 100,> 100
CCOC(=O)C(/C(=N\NC(=O)OC)C(=O)Nc1cc(OC)ccc1OC)c1cnc2ccccc2n1 (configuration not stated),–,> 100,> 100,> 100,–,> 100,> 100,> 100,> 100,–,> 100,> 100,> 100,> 100,> 100
COc1ccc2c(c1)[n+](=O)c(C(=O)C/C(=N/NC(=O)C[N+](C)(C)C)C(=O)Nc1cccc(C)c1C)c(C)n2O,> 100,> 100,> 100,> 100,> 100,> 100,> 100,–,> 100,–,> 100,> 100,> 100,> 100,> 100
O=C(Cc1ccc([N+](=O)[O-])c([N+](=O)[O-])c1CC(=O)C(=O)Nc1cc(Cl)ccc1Cl)C(=O)Nc1cc(Cl)ccc1Cl,> 100,> 100,–,> 100,> 100,> 100,> 100,> 100,> 100,> 100,> 100,> 100,> 100,> 100,94.7
Cc1nc(-n2nc(-c3ccccc3)cc2-c2ccccc2)sc1C(=O)/C=C/c1ccc(Cl)c(Cl)c1,> 100,–,21.6,44.5,42.1,81.3,> 100,36.7,> 100,52.5,> 100,23.9,19.9,> 100,> 100
CCN(CC)CC(=O)NC1c2ccccc2Oc2c(C)cccc21 (configuration not stated),–,–,–,> 100,> 100,> 100,> 100,> 100,> 100,> 100,> 100,> 100,> 100,> 100,> 100
C#CCNC(=O)NCCCCC(NC(C)=O)C(=O)NCc1ccccc1 (configuration not stated),–,> 100,> 100,> 100,> 100,> 100,> 100,–,> 100,> 100,> 100,> 100,> 100,> 100,> 100
O=C(N/N=C(/c1nc2ccc([N+](=O)[O-])cc2[nH]c1=O)C(O)c1ccc([N+](=O)[O-])cc1)c1ccncc1 (configuration not stated),> 100,> 100,> 100,> 100,–,> 100,> 100,> 100,> 100,> 100,> 100,> 100,> 100,> 100,–
CCOC(=O)c1cnc2c(ccc3[nH]cccc32)c1=O,> 100,–,> 100,> 100,> 100,> 100,> 100,> 100,> 100,> 100,> 100,> 100,> 100,> 100,> 100
CC(C)N(C(=O)C12C3C4C1C1C2C3C41I)C(C)C (configuration not stated),–,> 100,> 100,–,> 100,> 100,> 100,> 100,> 100,> 100,> 100,> 100,> 100,> 100,–
C[C@@]1(Cc2ccccc2)C(=O)N2[C@@H](CO)C(c3ccccc3)O[C@]2(C)c2ccccc21 (some centres not stated),> 100,> 100,> 100,> 100,> 100,> 100,–,> 100,> 100,> 100,–,> 100,> 100,> 100,> 100
